Legend:
Assay in all cases: Greenhouse herbicidal activity assay, post-emergence
Type in all cases: in vivo
Echinochloa crusgalli = conditions: Post-emergence test, rate 150 g a.i./hm^2, grade by fresh weight inhibition rate; for pest or weed control at 150 g/ha: Echinochloa crus-galli, read-out: Control efficacy grade, Echinochloa crusgalli
Outline: (§1)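 Weeds were sown in nutrient soil in 7 cm pots and grown in a growth chamber to the 3-6 leaf stage, then foliar-sprayed, air-dried and returned to the chamber. Fresh weight inhibition was scored 14-21 days later in bands from A (≥80% to 100%) to E (<20%).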

Eclipta prostrata = conditions: Post-emergence test, rate 150 g a.i./hm^2, grade by fresh weight inhibition rate; for pest or weed control at 150 g/ha: Eclipta prostrata, read-out: Control efficacy grade, Eclipta prostrata
Outline: as §1

Cyperus iria = conditions: Post-emergence test, rate 150 g a.i./hm^2, grade by fresh weight inhibition rate; for pest or weed control at 150 g/ha: Cyperus iria, read-out: Control efficacy grade, Cyperus iria
Outline: as §1

Digitaria sanguinalis = conditions: Post-emergence test, rate 150 g a.i./hm^2, grade by fresh weight inhibition rate; for pest or weed control at 150 g/ha: Digitaria sanguinalis, read-out: Control efficacy grade, Digitaria sanguinalis
Outline: as §1

Leptochloa chinensis = conditions: Post-emergence test, rate 150 g a.i./hm^2, grade by fresh weight inhibition rate; for pest or weed control at 150 g/ha: Dinebra chinensis, read-out: Control efficacy grade, Leptochloa chinensis
Outline: as §1

| Structure (SMILES) | Control efficacy grade, Echinochloa crusgalli (Echinochloa crusgalli) | Control efficacy grade, Eclipta prostrata (Eclipta prostrata) | Control efficacy grade, Cyperus iria (Cyperus iria) | Control efficacy grade, Digitaria sanguinalis (Digitaria sanguinalis) | Control efficacy grade, Leptochloa chinensis (Leptochloa chinensis) | pest or weed control at 150 g/ha (Echinochloa crusgalli) [%] | pest or weed control at 150 g/ha (Eclipta prostrata) [%] | pest or weed control at 150 g/ha (Cyperus iria) [%] | pest or weed control at 150 g/ha (Digitaria sanguinalis) [%] | pest or weed control at 150 g/ha (Leptochloa chinensis) [%] |
| --- | --- | --- | --- | --- | --- | --- | --- | --- | --- | --- |
| CCC[S+]([O-])c1c(S(C)(=O)=O)ccc(C(=O)Nc2nnnn2CC)c1Cl (racemic) [Compound 1-88] | A (Fresh weight inhibition rate≥80% to 100%) | A (Fresh weight inhibition rate≥80% to 100%) | A (Fresh weight inhibition rate≥80% to 100%) | A (Fresh weight inhibition rate≥80% to 100%) | A (Fresh weight inhibition rate≥80% to 100%) |  |  |  |  |  |
| CS(=O)(=O)c1ccc(C(=O)Nc2nnco2)c(Cl)c1[S+]([O-])C1CCC1 (racemic) [Compound 3-309] | A (Fresh weight inhibition rate≥80% to 100%) | A (Fresh weight inhibition rate≥80% to 100%) | A (Fresh weight inhibition rate≥80% to 100%) | A (Fresh weight inhibition rate≥80% to 100%) | A (Fresh weight inhibition rate≥80% to 100%) |  |  |  |  |  |
| CCC[S+]([O-])c1c(S(C)(=O)=O)ccc(C(=O)Nc2nnn[nH]2)c1Cl (racemic) [Compound 1-78] | A (Fresh weight inhibition rate≥80% to 100%) | A (Fresh weight inhibition rate≥80% to 100%) | A (Fresh weight inhibition rate≥80% to 100%) | A (Fresh weight inhibition rate≥80% to 100%) | A (Fresh weight inhibition rate≥80% to 100%) |  |  |  |  |  |
| CCC[S+]([O-])c1c(S(C)(=O)=O)ccc(C(=O)Nc2nnnn2C)c1Cl (racemic) [Compound 1-2, 2-chloro-N-(1-methyl-1H-tetrazol-5-yl)-4-(methylsulfonyl)-3-(propylsulfinyl)benzamide] |  |  |  |  |  | 80 to 100 | 80 to 100 | 80 to 100 | 80 to 100 | 80 to 100 |
| CCC[S+]([O-])c1c(S(C)(=O)=O)ccc(C(=O)Nc2nnc(CC)o2)c1Cl (racemic) [Compound 3-384] | A (Fresh weight inhibition rate≥80% to 100%) | A (Fresh weight inhibition rate≥80% to 100%) | A (Fresh weight inhibition rate≥80% to 100%) | A (Fresh weight inhibition rate≥80% to 100%) | A (Fresh weight inhibition rate≥80% to 100%) |  |  |  |  |  |
| CCc1nnc(NC(=O)c2ccc(S(C)(=O)=O)c([S+]([O-])C3CCCCC3)c2Cl)o1 (racemic) [Compound 3-435] | A (Fresh weight inhibition rate≥80% to 100%) | A (Fresh weight inhibition rate≥80% to 100%) | A (Fresh weight inhibition rate≥80% to 100%) | A (Fresh weight inhibition rate≥80% to 100%) | A (Fresh weight inhibition rate≥80% to 100%) |  |  |  |  |  |
| CCCC[S+]([O-])c1c(S(C)(=O)=O)ccc(C(=O)Nc2nnc(CC)o2)c1Cl (racemic) [Compound 3-394] | A (Fresh weight inhibition rate≥80% to 100%) | A (Fresh weight inhibition rate≥80% to 100%) | A (Fresh weight inhibition rate≥80% to 100%) | A (Fresh weight inhibition rate≥80% to 100%) | A (Fresh weight inhibition rate≥80% to 100%) |  |  |  |  |  |
| Cc1nnc(NC(=O)c2ccc(S(C)(=O)=O)c(SC3CC3)c2Cl)o1 [Compound 3-77] | A (Fresh weight inhibition rate≥80% to 100%) | A (Fresh weight inhibition rate≥80% to 100%) | A (Fresh weight inhibition rate≥80% to 100%) | A (Fresh weight inhibition rate≥80% to 100%) | A (Fresh weight inhibition rate≥80% to 100%) |  |  |  |  |  |
| Cc1nnc(NC(=O)c2ccc(S(C)(=O)=O)c(SC3CCCC3)c2Cl)o1 [Compound 3-87] | A (Fresh weight inhibition rate≥80% to 100%) | A (Fresh weight inhibition rate≥80% to 100%) | A (Fresh weight inhibition rate≥80% to 100%) | A (Fresh weight inhibition rate≥80% to 100%) | A (Fresh weight inhibition rate≥80% to 100%) |  |  |  |  |  |
| CCC[S+]([O-])c1c(S(C)(=O)=O)ccc(C(=O)Nc2nnco2)c1Cl (stereo not drawn) [Compound 3-268, 2-chloro-4-(methylsulfonyl)-N-(1,3,4-oxadiazol-2-yl)-3-(propylsulfinyl)benzamide] |  |  |  |  |  | 80 to 100 | 80 to 100 | 80 to 100 | 80 to 100 | 80 to 100 |
| C=CCSc1c(S(C)(=O)=O)ccc(C(=O)Nc2nnnn2C)c1Cl [Compound 1-67] | A (Fresh weight inhibition rate≥80% to 100%) | A (Fresh weight inhibition rate≥80% to 100%) | A (Fresh weight inhibition rate≥80% to 100%) | A (Fresh weight inhibition rate≥80% to 100%) | A (Fresh weight inhibition rate≥80% to 100%) |  |  |  |  |  |
| CCc1nnc(NC(=O)c2ccc(S(C)(=O)=O)c(SC3CCC3)c2Cl)o1 [Compound 3-424] | A (Fresh weight inhibition rate≥80% to 100%) | A (Fresh weight inhibition rate≥80% to 100%) | A (Fresh weight inhibition rate≥80% to 100%) | A (Fresh weight inhibition rate≥80% to 100%) | A (Fresh weight inhibition rate≥80% to 100%) |  |  |  |  |  |
| CC(C)[S+]([O-])c1c(S(C)(=O)=O)ccc(C(=O)Nc2ncnn2C)c1Cl (racemic) [Compound 2-7, 2-chloro-3-(isopropylsulfinyl)-N-(1-methyl-1H-1,2,4-triazol-5-yl)-4-(methylsulfonyl)benzamide] |  |  |  |  |  | 80 to 100 | 80 to 100 | 80 to 100 | 80 to 100 | 80 to 100 |
| CCCCSc1c(S(C)(=O)=O)ccc(C(=O)Nc2nnco2)c1Cl [Compound 3-277] | A (Fresh weight inhibition rate≥80% to 100%) | A (Fresh weight inhibition rate≥80% to 100%) | A (Fresh weight inhibition rate≥80% to 100%) | C (Fresh weight inhibition rate≥40% to <60%) | A (Fresh weight inhibition rate≥80% to 100%) |  |  |  |  |  |
| CCc1nnc(NC(=O)c2ccc(S(C)(=O)=O)c(SC3CC3)c2Cl)o1 [Compound 3-419] | A (Fresh weight inhibition rate≥80% to 100%) | A (Fresh weight inhibition rate≥80% to 100%) | A (Fresh weight inhibition rate≥80% to 100%) | A (Fresh weight inhibition rate≥80% to 100%) | A (Fresh weight inhibition rate≥80% to 100%) |  |  |  |  |  |
